Calls of active or inactive are those of the source.
Legend:
Format in all cases: functional, cell-based
A549 [1] = experiment: Induction of apoptosis in resveratrol-induced human lung A549 cells assessed as decrease in Cyclin E1 level measured by immunoblotting method
A549 [2] = experiment: Induction of apoptosis in resveratrol-induced human lung A549 cells assessed as decrease in Cyclin D1 level measured by immunoblotting method
A549 [3] = experiment: Induction of apoptosis in resveratrol-induced human lung A549 cells assessed as decrease in pAkt level at Thr308 measured by immunoblotting method
ASTC-a-1 [4] = experiment: Induction of apoptosis in resveratrol-induced human lung ASTC-a-1 cells at 100 nM assessed as increase in cleaved caspase-3 expression measured by immunoblotting method
A549 [5] = experiment: Antiproliferative activity against resveratrol-induced human lung A549 cells at 100 nM measured after 5 days by CCK-8 assay; conditions: time 5.0 day
A549 [6] = experiment: Induction of apoptosis in resveratrol-induced human lung A549 cells assessed as decrease in pGSK3beta level at Ser9 measured by immunoblotting method
A549 [7] = experiment: Induction of apoptosis in resveratrol-induced human lung A549 cells assessed as decrease in pAkt level at Ser473 measured by immunoblotting method
A549 [8] = experiment: Induction of apoptosis in resveratrol-induced human lung A549 cells at 100 nM assessed as increase in cleaved caspase-3 expression measured by immunoblotting method
ASTC-a-1 [9] = experiment: Antiproliferative activity against resveratrol-induced human lung ASTC-a-1 cells at 100 nM measured after 5 days by CCK-8 assay; conditions: time 5.0 day

Measured: Activity

O=C(NC[C@H](O)CN1CCc2ccccc2C1)c1ccnc(NC2CCC2)c1
active: all assays above

— ChEMBL document CHEMBL5674888, “PRMT5 Promotes Human Lung Cancer Cell Apoptosis via Akt/Gsk3β Signaling Induced by Resveratrol” (Cell Transplant, 2019)
